The results in this text go back to ChEMBL document CHEMBL3045345, “Computer simulation of the in vitro and in vivo anti-inflammatory activities of dihydropyrimidines acid derivatives through the inhibition of cyclooxygenase-2” (Med Chem Res, 2013).

The source made the active and inactive calls. No cut-off for these calls is given here.

Experiment [1] concerns Rattus norvegicus. Description: Anti-inflammatory activity in Rattus norvegicus (rat) assessed as inhibition of carrageenan-induced paw edema at 100 mg/kg, po treated 60 min prior to carrageenan injection measured after 1 to 5 hr. It is filed as functional.
The test system of experiment [2] is Rattus norvegicus. Nature of the experiment: Anti-inflammatory activity in Rattus norvegicus (rat) assessed as inhibition of carrageenan-induced paw edema at 100 mg/kg, po treated 60 min prior to carrageenan injection measured after 1 to 5 hr relative to ibuprofen. It is filed as functional.
In experiment [3] the target is T1, Prostaglandin G/H synthase 1 (Ovis aries, UniProt P05979).
T1 sequence (P05979 whole entry): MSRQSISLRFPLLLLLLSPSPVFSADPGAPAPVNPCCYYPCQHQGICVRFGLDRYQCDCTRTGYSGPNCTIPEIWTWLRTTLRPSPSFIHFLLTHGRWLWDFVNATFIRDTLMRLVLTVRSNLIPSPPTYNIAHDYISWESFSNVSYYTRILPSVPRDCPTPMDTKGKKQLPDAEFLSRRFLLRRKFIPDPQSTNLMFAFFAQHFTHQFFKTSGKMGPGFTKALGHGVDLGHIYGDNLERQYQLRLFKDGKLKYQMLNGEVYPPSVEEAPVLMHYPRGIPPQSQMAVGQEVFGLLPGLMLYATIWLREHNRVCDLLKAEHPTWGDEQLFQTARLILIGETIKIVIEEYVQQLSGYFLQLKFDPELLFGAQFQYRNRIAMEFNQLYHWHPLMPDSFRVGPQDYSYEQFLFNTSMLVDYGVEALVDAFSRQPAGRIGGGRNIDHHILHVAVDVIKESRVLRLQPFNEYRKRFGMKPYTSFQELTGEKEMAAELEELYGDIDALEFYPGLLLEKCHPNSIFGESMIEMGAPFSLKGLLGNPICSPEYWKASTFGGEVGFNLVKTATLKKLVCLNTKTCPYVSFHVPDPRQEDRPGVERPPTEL
Nature of the experiment: Inhibition of Ovis aries (sheep) COX-1 assessed as decrease in PGF2a production from PGH2 upon reduction with stannous chloride using arachidonic acid as substrate pre-incubated with enzyme for 5 min prior to substrate addition by enzyme immunoassay.

For the compound `O=C1NC(/C=C/c2ccc([N+](=O)[O-])cc2)=C(C(=O)O)C(c2ccc([N+](=O)[O-])cc2)N1` (centres undefined), the inhibition entry in the experiment with Rattus norvegicus [1] was “inactive”.
On to `O=C1NC(/C=C/c2ccccc2)=C(C(=O)O)C(c2ccccc2)N1` (centres undefined), for which, in the experiment on Rattus norvegicus [1], the inhibition in vivo at 100 mg/kg was 16%.
For `COc1ccc(/C=C/C2=C(C(=O)O)C(c3ccc(OC)cc3)NC(=O)N2)cc1` (centres undefined), the inhibition in vivo at 100 mg/kg worked out at 23% in the experiment with Rattus norvegicus [1] and 41% in the experiment on Rattus norvegicus [2]. In addition, in experiment [3], the IC50 amounted to 14.7 µM.
`CC(C)Cc1ccc(C(C)C(=O)O)cc1` (centres undefined) [IBUPROFEN]: the inhibition in vivo at 100 mg/kg in the experiment on Rattus norvegicus [1] was 56%.
For the compound `CN(C)c1ccc(/C=C/C2=C(C(=O)O)C(c3ccc(N(C)C)cc3)NC(=O)N2)cc1` (centres undefined), the inhibition entry in the experiment on Rattus norvegicus [1] is “inactive”.
On to `CN(C)c1ccc(/C=C/C2=C(C(=O)O)C(c3ccc(N(C)C)cc3)NC(=S)N2)cc1` (centres undefined), for which, in the experiment on Rattus norvegicus [1], the inhibition result is “inactive”.
Same read-out and setting: the result for `O=C(O)C1=C(/C=C/c2ccc(O)cc2)NC(=S)NC1c1ccc(O)cc1` (centres undefined) reads “inactive”; that for `O=C(O)C1=C(/C=C/c2ccccc2)NC(=S)NC1c1ccccc1` (centres undefined), “inactive”.
For `O=C1NC(/C=C/c2ccc(O)cc2)=C(C(=O)O)C(c2ccc(O)cc2)N1` (centres undefined), the inhibition in vivo at 100 mg/kg in the experiment on Rattus norvegicus [1] came out at 12%.
With `COc1ccc(/C=C/C2=C(C(=O)O)C(c3ccc(OC)cc3)NC(=S)N2)cc1` (centres undefined), the inhibition in vivo at 100 mg/kg in the experiment with Rattus norvegicus [1] and in the experiment with Rattus norvegicus [2] was 38% in each case. Moreover, in experiment [3], the half-inhibitory concentration (IC50) is 14.3 µM.
